In US12600724B2, “Indole alkaloid and preparation method and use thereof” (NANJING UNIVERSITY OF CHINESE MEDICINE, priority 2022, dated 2026):

How the values were obtained:
Type in all cases: in vivo, C57BL/6J mice
[1] = test system: DRG neurons of type-1 diabetes peripheral neuropathy model mice; assay: Axon growth of DRG neuron cells taken after administration, type-1 mice
Protocol: Type-1 diabetes mice: male 8-week-old C57BL/6J mice were purchased from Beijing Vital River Laboratory Animal Technology Co., Ltd. One week after adaptive feeding, STZ (150 mg/kg) was injected intraperitoneally, and one week later, tail vein blood collection was carried out for blood sugar detection, and the mice with random blood sugar greater than 16 mmol/L were selected. Six weeks after STZ injection, the mice were divided into a control group (non-diabetic mice), a model group (DPN mice) and a S26 administration group (46.8 mg/kg/day) respectively according to body weight and blood sugar, and administrated intragastrically for four weeks continuously. After administration, a fresh DRG neuron of a mouse was extracted to digest into a single-cell suspension and then inoculated into a culture plate for adherent culture overnight. A β-tubulin III (Sigma) protein of the DRG neuron cells was labeled by an immunofluorescence staining method. The protein was imaged by a fluorescence microscope (Leica), and a total axon length of a single DRG neuron cell was tracked by a Neuro J plug-in in Image J software.

[2] = test system: bleomycin-induced pulmonary fibrosis mouse; assay: Bleomycin-induced pulmonary fibrosis mouse, Micro-CT volume of normal lung tissue; details: for Volume of normal lung tissue: bleomycin 5 mg/kg model, S26 46.8 mg/kg intragastric, Mean ± SD, n = 4
Source text: In this experiment, the pulmonary fibrosis model was established by oral tracheal instilling of a bleomycin solution into the mouse, and then the compound S26 was administrated for treatment. A volume of a normal lung tissue of the mouse was quantified by carrying out CT photographing and three-dimensional reconstruction on a lung of the mouse to evaluate the influence of the vinpocetine derivative S26 on the degree of the bleomycin-induced pulmonary fibrosis of the mouse. Male 8-week-old C57BL/6J mice were purchased from Beijing Weitong Lihua Experimental Animal Technology Co., Ltd. One week after adaptive feeding, a lung development condition of the mouse was examined by micro-CT. The mice were divided into a blank control group (normal mice), a model group and a S26 administration group (46.8 mg/kg) according to a volume of a normal lung tissue. Subsequently, an inhalation anesthesia machine was used to carry out isoflurane inhalation to induce anesthesia. The mice in the model group and the administration group were given 5 mg/kg bleomycin solution through oral tracheal instilling to establish the pulmonary fibrosis model, while the mice in the control group were given the same volume of bleomycin solvent. The mice were administrated on day 8 after the establishment of the model, and were intragastrically administrated for 20 days continuously. Micro-CT imaging was carried out before the establishment of the model and on day 8, day 18 and day 28 after the establishment of the model to observe pulmonary fibrosis of the mice.

[3] = test system: STZ-induced type-1 diabetes model mice; assay: Latent period of thermal pain, type-1 diabetic peripheral neuropathy mice; details: type-1 mice, S26 46.8 mg/kg/day intragastric, Mean ± SD, n = 6
Protocol: Type-1 diabetes mice: male 8-week-old C57BL/6J mice were purchased from Beijing Vital River Laboratory Animal Technology Co., Ltd. One week after adaptive feeding, STZ (150 mg/kg) was injected intraperitoneally, and one week later, tail vein blood collection was carried out for blood sugar detection, and the mice with random blood sugar greater than 16 mmol/L were selected. Six weeks after STZ injection, the mice were divided into a control group (non-diabetic mice), a model group (DPN mice) and a S26 administration group (46.8 mg/kg/day) respectively according to body weight and blood sugar, and administrated intragastrically for four weeks continuously. A response of an animal to infrared thermal stimulation was detected weekly by an infrared plantar pain threshold detector (37370, purchased from Ugo Basile Company) before and after administration to characterize a thermal pain sensitivity of the animal. A mouse was put into a single cage equipped for the machine in advance to adapt for 20 minutes, and then plantar thermal stimulation was carried out on the mouse. […] The thermal pain sensitivity was evaluated by comparing the thermal stimulation time.

[4] = test system: STZ-induced type-1 diabetes model mice; assay: Motor nerve conduction velocity, type-1 diabetic peripheral neuropathy mice; details: for Motor nerve conduction velocity: type-1 mice, S26 46.8 mg/kg/day intragastric, Mean ± SD, n = 3
Protocol: Type-1 diabetes mice: male 8-week-old C57BL/6J mice were purchased from Beijing Vital River Laboratory Animal Technology Co., Ltd. One week after adaptive feeding, STZ (150 mg/kg) was injected intraperitoneally, and one week later, tail vein blood collection was carried out for blood sugar detection, and the mice with random blood sugar greater than 16 mmol/L were selected. Six weeks after STZ injection, the mice were divided into a control group (non-diabetic mice), a model group (DPN mice) and a S26 administration group (46.8 mg/kg/day) respectively according to body weight and blood sugar, and administrated intragastrically for four weeks continuously. Before administration, 2 weeks and 4 weeks after administration, motor nerve conduction velocities (MNCV) of left and right sides of each group of mice were detected, and a mean value of the velocities of two sides was taken as a nerve conduction velocity of each mouse. Specific experimental method: (1) electrode placement: a stimulating electrode was placed on a nerve trunk, a recording electrode was placed on a muscle belly, and a reference electrode was placed on a muscle tendon; and a ground electrode was placed between the stimulating electrode and the recording electrode. (2) Calculation of motor nerve conduction velocity: distal and proximal ends of the nerve trunk were stimulated in a super-strong manner, a compound muscle action potential could be recorded twice on a muscle innervated by the nerve, different latent periods of the compound muscle action potentials were measured, and a distance between the distal and proximal ends was divided by a difference between the two latent periods, so as to obtain the nerve conduction velocity. Computational formula: nerve conduction velocity (m/s)=distance between two ends (cm)×10/difference between two latent periods (ms).

CC[C@@]12C=C(C(=O)NCC(=O)OCCOCCOCCOCCO)n3c4c(c5ccccc53)CCN(CCC1)[C@H]42 [Compound S26]
Total axon length ([1]; Type-1 mice, DRG neurons extracted after four weeks of S26 46.8 mg/kg/day intragastric, Mean (SD in the cell below), n = 6): 6374.12 pixel
Axon growth conditions of DRG neurons (in words, FIG. 1) ([1]; type-1 diabetes peripheral neuropathy model mice): obviously improve
Volume of normal lung tissue ([2]; day 0 of administration (day 8 after model)): 328.98 ± 34.15^ mm^3
Volume of normal lung tissue ([2]; day 10 of administration (day 18 after model)): 486.71 ± 48.61^# mm^3
Volume of normal lung tissue ([2]; day 20 of administration (day 28 after model)): 536.70 ± 58.44^## mm^3
Volume of the normal lung tissue (in words, FIG. 3) ([2]; pulmonary fibrosis model mouse): obviously increase
Latent period of thermal pain ([3]; week 0 of administration): 11.33 ± 0.67 ^ s
Latent period of thermal pain ([3]; week 1 of administration): 8.19 ± 0.69 s
Latent period of thermal pain ([3]; week 2 of administration): 6.97 ± 0.73 s
Latent period of thermal pain ([3]; week 3 of administration): 6.16 ± 1.33 s
Latent period of thermal pain ([3]; week 4 of administration): 6.38 ± 0.54 s
Motor nerve conduction velocity and anesthesia symptom (in words) ([4]; type-1 diabetes peripheral neuropathy mouse, Tables 2 to 4): obviously improve
Motor nerve conduction velocity ([4]; week 0 of administration): 20.37 ± 3.21^ m/s
Motor nerve conduction velocity ([4]; week 2 of administration): 27.48 ± 2.97 m/s
Motor nerve conduction velocity ([4]; week 4 of administration): 31.11 ± 3.85 m/s
